According to patent publication US20250243208A1, “BICYCLIC HETEROCYCLES AS MRGPRX2 ANTAGONISTS” (Incyte Corporation, priority 2024, published 2025):

Experiments:
Assay type in all cases: cell-based
MRGPRX2 [1] = biological target: T1, MRGPRX2 (Homo sapiens, UniProt Q96LB1); experiment: MRGPRX2 FLIPR calcium mobilization assay; parameters: host or cells: CHO-K1; details: CHO-K1 cells, agonist Cortistatin-14 at EC80, Ca2+ release
T1 sequence (Q96LB1 1-330): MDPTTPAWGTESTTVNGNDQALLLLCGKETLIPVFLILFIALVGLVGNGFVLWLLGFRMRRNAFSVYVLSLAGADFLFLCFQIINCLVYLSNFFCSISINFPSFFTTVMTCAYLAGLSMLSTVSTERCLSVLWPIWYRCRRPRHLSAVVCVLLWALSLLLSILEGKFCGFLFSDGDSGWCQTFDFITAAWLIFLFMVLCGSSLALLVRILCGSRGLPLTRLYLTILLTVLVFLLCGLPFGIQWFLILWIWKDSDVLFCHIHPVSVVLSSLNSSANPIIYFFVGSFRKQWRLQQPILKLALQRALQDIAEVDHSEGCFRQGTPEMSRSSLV
Method: Example A. MRGPRX2 FLIPR Calcium Mobilization Assay
Chinese hamster ovary (CHO-K1) cells stably expressing human MRGPRX2 were purchased from Genescript (Piscataway, NJ). The cells were maintained in culture medium (Ham's F-12K) containing 10% (v/v) FBS, 200 μg/mL Zeocin, 100 units/mL penicillin G and 100 μg/mL streptomycin (Life Technologies, Carlsbad, CA). For the assay, the cells were harvested and resuspended with culture medium without Zeocin before plating at 8000 cells per well in 20 μL in 384-well black clear bottom cell culture plates (VWR, Radnor, PA). […] Ca^2+ release was measured with FLIPR Penta with 10 s basal fluorescence measurement, then 12.5 μL of 5× agonist Cortistatin-14 (Tocris, Minneapolis, MN) at final concentration corresponding to the EC80 were added followed with continued fluorescence signal monitoring for an additional 110 s. The base line adjusted (median of first 10s base line) max value of the Relative Fluorescence Unit (RFU) was plotted against compound concentrations. […]

MRGPRX2 [2] = biological target: T1, MRGPRX2; experiment: MRGPRX2 β-Arrestin recruitment assay (PathHunter CHO-K1); parameters: host or cells: PathHunter CHO-K1; details: PathHunter CHO-K1 cells, agonist Cortistatin 14 0.25 μM
Source text: Example C: MRGPRX2 β-Arrestin Assay
This assay measures compound inhibition of β-Arrestin recruitment, which is part of the G protein-independent pathway that results from the ligand-activated GPCR phosphorylation by specific GPCR kinases. The PathHunter CHO-K1 MRPGRX2 B-Arrestin Cell line stably expressing ProLink tagged MRGPRX2 and Enzyme Acceptor Tagged B-Arrestin was purchased from Eurofins DiscoverX, (Fremont, CA).
The cells were maintained in culture medium from the Europhins DiscoverX Cell Culture Kit-107 which includes FBS, hygromycin B and G418. For the assay, the cells were harvested and were resuspended with Cell Plating Reagent 2 (Eurofins DiscoverX). Cells were added 10000 cells in 25 μL/well to a 384-well black cell culture plate (Greiner VWR, Radnor, PA) which contained 125 nL/well of compound at a selected serially diluted concentration range or DMSO. The plate was incubated at 37° C. with 5% CO2 for 1 h. 2 μL/well of agonist Cortistatin 14 was diluted in Protein Dilution Buffer, (Eurofins DiscoverX) for a final concentration of 0.25 μM, was added and the plate was incubated at 37° C. with 5% CO2 for 90 min. 14 μL/well of Detection Reagent Mix (PathHunter Detection Kit, Eurofins DiscoverX) was added to the plates and further incubated for 1 h in the dark. Plates were read on the PHERAstar microplate reader (BMG Labtech Cary, NC) measuring luminescence 0.1 to 1 s per well. Data was normalized using DMSO only wells and wells with high concentration of reference antagonist as controls. Compound IC50 curves were globally fitted with 3- or 4-parameter Hill equation in a Genedata Screener (Genedata Basel, Switzerland).

MRGPRX2 [3] = biological target: T1, MRGPRX2; experiment: MRGPRX2 IP1 HTRF assay; parameters: host or cells: CHO-K1; details: CHO-K1 cells, agonist Cortistatin 14 1 μM, IP1 accumulation
Source text: Example B: MRGPRX2 IP1 HTRF Assay
This assay measures compound inhibition of myo-Inositol 1 phosphate (IP1) accumulation in CHO-K1 cells. Chinese hamster ovary (CHO-K1) cells stably expressing human MRGPRX2 were purchased from GenScript (Piscataway, NJ).
For the HTRF IP1 determination, an IP-One GqKit (Perkin Elmer Cisbio, Waltham, MA), which includes all reagents and buffers in this protocol, was used. The cells were maintained in culture medium (Ham's F-12K) containing 10% (v/v) FBS, and 200 μg/mL Zeocin. For the assay, the cells were harvested and resuspended in culture medium with 2% FBS and without Zeocin, then were passed through a 40 μm filter. Cells were added at 20000 cells in a 5 μL/well to a 384-well white small volume cell culture plate (Greiner VWR, Radnor, PA) which contained 50 nL/well of test compound serially diluted at a selected concentration range in DMSO. 5 μL/well of prepared 2× Stimulation Buffer2 was then added to plates and was incubated at 37° C. with 5% CO2 for 1 h. 5 μL/well of agonist Cortistatin 14 (Bio-TechneR&D Systems, Minneapolis, MN) in 1× Stimulation Buffer 2, for a 1 μM final concentration, was then added to plates and incubated at 37° C. with 5% CO2 for 1 h. 6 μL/well of 1:20 diluted Detection Reagent Mix (d2 and Cryptate) was added to the plates and incubated for 1 h in the dark. Plates were read on the PHERAstar microplate reader (BMG Labtech Cary, NC) to determine the HTRF ratio of the acceptor and donor emission signals. The IP1 concentrations were calculated from a standard curve following the IP-One GQ kit instructions. Wells with DMSO only and wells with high concentration of reference antagonist were used as controls for normalization. Compound IC50 curves were globally fitted with 3- or 4-parameter Hill equation in a Genedata Screener (Genedata Basel, Switzerland).

IC50 (MRGPRX2 [1]) [nM]	IC50 (MRGPRX2 [2]) [nM]	IC50 (MRGPRX2 [3]) [nM]	Compound
0.1 to 100	0.1 to 100		CC(CNc1cc(C(F)(F)F)nc2cc(C(F)(F)F)nn12)(c1ccc(F)cc1)C1CNC1 (racemic) [Example 13, N-(2-(Azetidin-3-yl)-2-(4-fluorophenyl)propyl)-2,5-bis(trifluoromethyl)pyrazolo[1,5-a]pyrimidin-7-amine]
0.1 to 100	0.1 to 100	0.1 to 100	CC(CNc1cc(C(F)(F)F)nc2cc(C(F)(F)F)nn12)(c1ccc(F)cc1)C1CN(/C(N)=N/C#N)C1 (racemic) [Example 14, 3-(1-((2,5-Bis(trifluoromethyl)pyrazolo[1,5-a]pyrimidin-7-yl)amino)-2-(4-fluorophenyl)propan-2-yl)-N′-cyanoazetidine-1-carboximidamide]
